system: GST-Bcl-2; assay: TR-FRET binding assay, Bcl-2; conditions: TR-FRET Ki values
In short: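 Ki values come from Wang's competitive-binding equation applied to TR-FRET signal (excitation 340/35 nm; emission 520/525 nm F-Bak peptide, 495/510 nm Tb antibody). Protein, probe and antibody incubated with compound 3 h at room temperature; dilution series began at 50 μM as 2× stock in 10% DMSO.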

| SMILES | Binding selectivity ratio (Bcl-XL Ki/Bcl-2 Ki) |
| --- | --- |
| CC1(C)CCC(CN2CCN(c3ccc(C(=O)NS(=O)(=O)c4ccc(NCCCN5CCOCC5)c(S(=O)(=O)C(F)(F)F)c4)c(Oc4cccc5[nH]ccc45)c3)CC2)=C(c2ccc(Cl)cc2)C1 [EXAMPLE 349, 4-(4-{[2-(4-chlorophenyl)-4,4-dimethylcyclohex-1-en-1-yl]methyl}piperazin-1-yl)-2-(1H-indol-4-yloxy)-N-({4-[(3-morpholin-4-ylpropyl)amino]-3-[(trifluoromethyl)sulfonyl]phenyl}sulfonyl)benzamide] | 51.9 |
| CN(C)CCOc1ccc(-c2ccc(Cl)cc2)c(CN2CCN(c3ccc(C(=O)NS(=O)(=O)c4ccc(NN5CCN(C)CC5)c([N+](=O)[O-])c4)c(Oc4cccc5[nH]ccc45)c3)CC2)c1 [EXAMPLE 274, 4-[4-({4′-chloro-4-[2-(dimethylamino)ethoxy]-1,1′-biphenyl-2-yl}methyl)piperazin-1-yl]-2-(1H-indol-4-yloxy)-N-({4-[(4-methylpiperazin-1-yl)amino]-3-nitrophenyl}sulfonyl)benzamide] | 244.6 |
| CC1(C)CCC(CN2CCN(c3ccc(C(=O)NS(=O)(=O)c4cnc(OCC5(F)CCOCC5)c(Cl)c4)c(Oc4cccc5[nH]cnc45)c3)CC2)=C(c2ccc(Cl)cc2)C1 [EXAMPLE 443, 2-(1H-benzimidazol-4-yloxy)-N-({5-chloro-6-[(4-fluorotetrahydro-2H-pyran-4-yl)methoxy]pyridin-3-yl}sulfonyl)-4-(4-{[2-(4-chlorophenyl)-4,4-dimethylcyclohex-1-en-1-yl]methyl}piperazin-1-yl)benzamide] | 1935.7 |
| CC(C1=C(c2ccc(Cl)cc2)CC(C)(C)CC1)N1CCN(c2ccc(C(=O)NS(=O)(=O)c3ccc(NC4CCN(C5CCOCC5)CC4)c([N+](=O)[O-])c3)c(Oc3ccc4[nH]ccc4c3)c2)CC1 (stereo not shown) [EXAMPLE 258, 4-(4-{1-[2-(4-chlorophenyl)-4,4-dimethylcyclohex-1-en-1-yl]ethyl}piperazin-1-yl)-2-(1H-indol-5-yloxy)-N-({3-nitro-4-[(1-tetrahydro-2H-pyran-4-ylpiperidin-4-yl)amino]phenyl}sulfonyl)benzamide] | 86 |
| CC1(C)CCC(CN2CCN(c3ccc(C(=O)NS(=O)(=O)c4ccc(NCC(F)(F)F)c([N+](=O)[O-])c4)c(Oc4cccc5[nH]ccc45)c3)CC2)=C(c2ccc(Cl)cc2)C1 [EXAMPLE 343, 4-(4-{[2-(4-chlorophenyl)-4,4-dimethylcyclohex-1-en-1-yl]methyl}piperazin-1-yl)-2-(1H-indol-4-yloxy)-N-({3-nitro-4-[(2,2,2-trifluoroethyl)amino]phenyl}sulfonyl)benzamide] | >1145.9 |
| COCCNc1ccc(S(=O)(=O)NC(=O)c2ccc(N3CCN(CC4=C(c5ccc(Cl)cc5)CC(C)(C)CC4)CC3)cc2Oc2ccc3[nH]ccc3c2)cc1[N+](=O)[O-] [Example 179, 4-(4-{[2-(4-chlorophenyl)-4,4-dimethylcyclohex-1-en-1-yl]methyl}piperazin-1-yl)-2-(1H-indol-5-yloxy)-N-({4-[(2-methoxyethyl)amino]-3-nitrophenyl}sulfonyl)benzamide] | >3642.4 |
| CCN(CC)C1CCC(Nc2ccc(S(=O)(=O)NC(=O)c3ccc(N4CCN(CC5=C(c6ccc(Cl)cc6)CC(C)(C)CC5)CC4)cc3Oc3cccc4[nH]ccc34)cc2[N+](=O)[O-])CC1 (stereo not shown) [EXAMPLE 203, 4-(4-{[2-(4-chlorophenyl)-4,4-dimethylcyclohex-1-en-1-yl]methyl}piperazin-1-yl)-N-[(4-{[4-(diethylamino)cyclohexyl]amino}-3-nitrophenyl)sulfonyl]-2-(1H-indol-4-yloxy)benzamide] | 139.5 |
| CC(C)C[C@@H](CO)Nc1ccc(S(=O)(=O)NC(=O)c2ccc(N3CCN(CC4=C(c5ccc(Cl)cc5)CC(C)(C)CC4)CC3)cc2Oc2ccc3[nH]ccc3c2)cc1[N+](=O)[O-] [EXAMPLE 369, 4-(4-{[2-(4-chlorophenyl)-4,4-dimethylcyclohex-1-en-1-yl]methyl}piperazin-1-yl)-N-[(4-{[(1S)-1-(hydroxymethyl)-3-methylbutyl]amino}-3-nitrophenyl)sulfonyl]-2-(1H-indol-5-yloxy)benzamide] | >0.8 |
| CC1(C)CCC(CN2CCN(c3ccc(C(=O)NS(=O)(=O)c4cnc(NCC5CCOCC5)c(Br)c4)c(Oc4ccc5[nH]ccc5c4)c3)CC2)=C(c2ccc(Cl)cc2)C1 [EXAMPLE 350, N-({5-bromo-6-[(tetrahydro-2H-pyran-4-ylmethyl)amino]pyridin-3-yl}sulfonyl)-4-(4-{[2-(4-chlorophenyl)-4,4-dimethylcyclohex-1-en-1-yl]methyl}piperazin-1-yl)-2-(1H-indol-5-yloxy)benzamide] | >110.6 |
| CC1(C)CCC(CN2CCN(c3ccc(C(=O)NS(=O)(=O)c4ccc(NC5CCC(N6CCOCC6)CC5)c([N+](=O)[O-])c4)c(Oc4ccc5[nH]ccc5c4)c3)CC2)=C(c2ccc(Cl)cc2)C1 (stereo not shown) [EXAMPLE 363, 4-(4-{[2-(4-chlorophenyl)-4,4-dimethylcyclohex-1-en-1-yl]methyl}piperazin-1-yl)-2-(1H-indol-5-yloxy)-N-({4-[(4-morpholin-4-ylcyclohexyl)amino]-3-nitrophenyl}sulfonyl)benzamide] | >3670.5 |
| C#Cc1cc(S(=O)(=O)NC(=O)c2ccc(N3CCN(CC4=C(c5ccc(Cl)cc5)CC(C)(C)CC4)CC3)cc2Oc2cccc3[nH]ccc23)cnc1OCC1CCOCC1 [EXAMPLE 391, 4-(4-{[2-(4-chlorophenyl)-4,4-dimethylcyclohex-1-en-1-yl]methyl}piperazin-1-yl)-N-{[5-ethynyl-6-(tetrahydro-2H-pyran-4-ylmethoxy)pyridin-3-yl]sulfonyl}-2-(1H-indol-4-yloxy)benzamide] | >186.4 |
| CO[C@H]1CC[C@H](CNc2ccc(S(=O)(=O)NC(=O)c3ccc(N4CCN(CC5=C(c6ccc(Cl)cc6)CC(C)(C)CC5)CC4)cc3Oc3cccc4[nH]cnc34)cc2[N+](=O)[O-])CC1 [EXAMPLE 440, Trans-2-(1H-benzimidazol-4-yloxy)-4-(4-{[2-(4-chlorophenyl)-4,4-dimethylcyclohex-1-en-1-yl]methyl}piperazin-1-yl)-N-[(4-{[(4-methoxycyclohexyl)methyl]amino}-3-nitrophenyl)sulfonyl]benzamide] | 4549.1 |
| CC1(C)CCC(CN2CCN(c3ccc(C(=O)NS(=O)(=O)c4ccc(NCC5CCOCC5)c(S(=O)(=O)C(F)(F)F)c4)c(Oc4cccc5[nH]ccc45)c3)CC2)=C(c2ccc(Cl)cc2)C1 [EXAMPLE 303, 4-(4-{[2-(4-chlorophenyl)-4,4-dimethylcyclohex-1-en-1-yl]methyl}piperazin-1-yl)-2-(1H-indol-4-yloxy)-N-({4-[(tetrahydro-2H-pyran-4-ylmethyl)amino]-3-[(trifluoromethyl)sulfonyl]phenyl}sulfonyl)benzamide] | >445.9 |
| CC1(C)CC(c2ccc(Cl)cc2)=C(CN2CCN(c3ccc(C(=O)NS(=O)(=O)c4cnc(OCC5(F)CCOCC5)c(Cl)c4)c(Oc4cccc5[nH]ncc45)c3)CC2)CO1 [EXAMPLE 465, N-({5-chloro-6-[(4-fluorotetrahydro-2H-pyran-4-yl)methoxy]pyridin-3-yl}sulfonyl)-4-(4-{[4-(4-chlorophenyl)-6,6-dimethyl-5,6-dihydro-2H-pyran-3-yl]methyl}piperazin-1-yl)-2-(1H-indazol-4-yloxy)benzamide] | 1472 |
| CN(C)CCCNc1ccc(S(=O)(=O)NC(=O)c2ccc(N3CCN(Cc4ccccc4-c4ccc(Cl)cc4)CC3)cc2Oc2ccc3cc[nH]c3c2)cc1[N+](=O)[O-] [Example 47, 4-{4-[(4′-chloro-1,1′-biphenyl-2-yl)methyl]piperazin-1-yl}-N-[(4-{[3-(dimethylamino)propyl]amino}-3-nitrophenyl)sulfonyl]-2-(1H-indol-6-yloxy)benzamide] | 15.7 |
| CC1(C)CCC(CN2CCN(c3ccc(C(=O)NS(=O)(=O)c4ccc(NC5CCN(Cc6cscn6)CC5)c([N+](=O)[O-])c4)c(Oc4ccc5[nH]ccc5c4)c3)CC2)=C(c2ccc(Cl)cc2)C1 [EXAMPLE 231, 4-(4-{[2-(4-chlorophenyl)-4,4-dimethylcyclohex-1-en-1-yl]methyl}piperazin-1-yl)-2-(1H-indol-5-yloxy)-N-[(3-nitro-4-{[1-(1,3-thiazol-4-ylmethyl)piperidin-4-yl]amino}phenyl)sulfonyl]benzamide] | >718.8 |
| O=C(NS(=O)(=O)c1ccc(NCC2CCOCC2)c([N+](=O)[O-])c1)c1ccc(N2CCN(Cc3cc(OCCN4CCOCC4)ccc3-c3ccc(Cl)cc3)CC2)cc1Oc1ccc2[nH]ccc2c1 [Example 127, 4-(4-{[4′-chloro-4-(2-morpholin-4-ylethoxy)-1,1′-biphenyl-2-yl]methyl}piperazin-1-yl)-2-(1H-indol-5-yloxy)-N-({3-nitro-4-[(tetrahydro-2H-pyran-4-ylmethyl)amino]phenyl}sulfonyl)benzamide] | >1437.9 |
| CN1CCN(CCNc2ccc(S(=O)(=O)NC(=O)c3ccc(N4CCN(CC5=C(c6ccc(Cl)cc6)CC(C)(C)CC5)CC4)cc3Oc3ccc4[nH]ccc4c3)cc2[N+](=O)[O-])CC1 [Example 95, 4-(4-{[2-(4-chlorophenyl)-4,4-dimethylcyclohex-1-en-1-yl]methyl}piperazin-1-yl)-2-(1H-indol-5-yloxy)-N-[(4-{[2-(4-methylpiperazin-1-yl)ethyl]amino}-3-nitrophenyl)sulfonyl]benzamide] | 261.7 |
| CC1(C)CCC(CN2CCN(c3ccc(C(=O)NS(=O)(=O)c4ccc(NCC5(O)CCCCC5)c([N+](=O)[O-])c4)c(Oc4ccc5[nH]ccc5c4)c3)CC2)=C(c2ccc(Cl)cc2)C1 [EXAMPLE 238, 4-(4-{[2-(4-chlorophenyl)-4,4-dimethylcyclohex-1-en-1-yl]methyl}piperazin-1-yl)-N-[(4-{[(1-hydroxycyclohexyl)methyl]amino}-3-nitrophenyl)sulfonyl]-2-(1H-indol-5-yloxy)benzamide] | >1534.3 |

From US9125913B2, “Bcl-2-selective apoptosis-inducing agents for the treatment of cancer and immune diseases” (AbbVie Inc., priority 2008, dated 2015)
